Reference: patent US20060040854A1, “Prostate hyperplasia therapy” (Board of Regents, The University of Texas System, priority 2004, published 2006)

Columns and labels:
[1] = test system: dogs with spontaneous benign prostatic hypertrophy
Experimental: The effect of insulin-6 on prostate size in benign prostatic hyperplasia is evaluated in a comparative study of finasteride and insulin-6 on size of the prostate gland and semen quality in dogs with benign prostatic hypertrophy in a protocol adapted from Sirinarumitr et al., J Am Vet Med Assoc. 2001 Apr. 15;218(8):1275-80.
Of […] dogs with BPH, five dogs are treated with insulin-6 or finasteride for 16 weeks (0.1 to 0.5 mg/kg [0.05 to 0.23 mg/lb] of body weight, PO, q 24 h); the other 4 receive a placebo. Prostatic diameter, measured radiographically, prostatic volume, measured ultrasonographically, semen quality, and serum DHT and testosterone concentrations are evaluated before and during treatment. After receiving the placebo for 16 weeks, the control dogs are treated with insulin-6 or finasteride for 16 weeks, and evaluations repeated.

[2] = test system: symptomatic benign prostatic hyperplasia (BPH); experiment: Prospective study of finasteride, insulin-6 and combination in symptomatic benign prostatic hyperplasia; format: in vivo; conditions: men with BPH
Experimental: A prospective study is used to evaluate the therapeutic effect of finasteride, insulin-6, and a combination of finasteride and insulin-6 drugs for symptomatic benign prostatic hyperplasia (BPH). In a protocol adapted from Kuo (Urol Int. 1998;60(2):85-91), 190 men suffering from severe prostatism are subjected to study.
Patients are assessed by IPSS symptom score, digital rectal examination, transrectal sonography of the prostate, uroflowmetry and residual urine. The patients are randomly selected for medical treatment with insulin-6 (n=71), finasteride 5 mg q.d. (n=54), and a combination (n=65). Clinical assessments are carried out before treatment and 3 and 6 months after starting treatment. Patients who can not complete the treatment and those with prostatic cancer are excluded from the final statistics. The quality of life after 6 months of treatment and side effects are also assessed.

[3] = test system: androgen-induced prostatic enlargement in rats; experiment: Androgen-induced prostatic enlargement in castrated rats, finasteride vs insulin-6; format: in vivo
Experimental: The efficacy of insulin-6 in reducing prostate growth is evaluated against finasteride in a comparative therapeutic protocol adapted from Talpur et al,0 Mol Cell Biochem. 2003 August;250(1-2):21-6. Pharmaceutical finasteride and alpha blockers are used to treat symptoms of benign prostatic hyperplasia (BPH) and are known to cause severe adverse reactions. The present study compares the in vivo effects of finasteride on androgen-induced prostatic enlargement in rats with insulin-6. Non-castrated rats, have a mean prostate weight of 124 mg+/−8.8 (S.E.M.) compared to the 24.5 mg+/−1.9 (S.E.M.) of a castrated rat followed under the same regimen (p<0.01). […] In the two treatment groups, castrated rats receiving testosterone are given finasteride or insulin-6.

Row | SMILES | semen quality ([1]; dog, in vivo) | semen volume ([1]; dog, in vivo) | serum DHT concentration, mean percentage decrease ([1]; dogs with BPH, 16 weeks, 0.1 to 0.5 mg/kg PO q 24 h) | prostatic diameter, mean percentage decrease ([1]; dogs with BPH, 16 weeks, 0.1 to 0.5 mg/kg PO q 24 h, measured radiographically) | prostatic volume, mean percentage decrease ([1]; dogs with BPH, 16 weeks, 0.1 to 0.5 mg/kg PO q 24 h, measured ultrasonographically) | quality of life after treatment ([2]; after 6 months of treatment) | IPSS symptom score ([2]; at 3 and 6 months) | Maximal flow rate (Qmax) ([2]; at 6 months) | prostatic volume ([2]; at 6 months) | size of the prostate ([3]; castrated rats receiving testosterone plus treatment) | mean prostate weight ([3]; castrated rats given testosterone, S.E.M. 31.7, p<0.01)
1 | CC(C)(C)NC(=O)[C@H]1CC[C@H]2[C@@H]3CC[C@H]4NC(=O)C=C[C@]4(C)[C@H]3CC[C@]12C [finasteride] | do not adversely effect | decrease semen volume | 58% | 20% | 43% | satisfactory | Improvement in IPSS is noted | significant increase in Qmax | found to decrease | decrease the size of the prostate to roughly the same size as in the non-castrated rats | –
2 | C[C@]12CC[C@H]3[C@@H](CCC4=CC(=O)CC[C@@]43C)[C@@H]1CC[C@@H]2O [testosterone] | – | – | – | – | – | – | – | – | – | – | 250.0 mg
